Measurements as given in ChEMBL document CHEMBL3751845, “Synthesis, molecular docking and biological evaluation of N,N-disubstituted 2-aminothiazolines as a new class of butyrylcholinesterase and carboxylesterase inhibitors” (Bioorg Med Chem, 2016).

How the values were obtained:
Liver carboxylesterase [1] = molecular target: T1, Liver carboxylesterase (Sus scrofa, UniProt Q29550); assay: Inhibition of porcine liver carboxylesterase using 4-nitrophenol acetate as substrate by spectrophotometric analysis
T1 sequence (Q29550 whole entry): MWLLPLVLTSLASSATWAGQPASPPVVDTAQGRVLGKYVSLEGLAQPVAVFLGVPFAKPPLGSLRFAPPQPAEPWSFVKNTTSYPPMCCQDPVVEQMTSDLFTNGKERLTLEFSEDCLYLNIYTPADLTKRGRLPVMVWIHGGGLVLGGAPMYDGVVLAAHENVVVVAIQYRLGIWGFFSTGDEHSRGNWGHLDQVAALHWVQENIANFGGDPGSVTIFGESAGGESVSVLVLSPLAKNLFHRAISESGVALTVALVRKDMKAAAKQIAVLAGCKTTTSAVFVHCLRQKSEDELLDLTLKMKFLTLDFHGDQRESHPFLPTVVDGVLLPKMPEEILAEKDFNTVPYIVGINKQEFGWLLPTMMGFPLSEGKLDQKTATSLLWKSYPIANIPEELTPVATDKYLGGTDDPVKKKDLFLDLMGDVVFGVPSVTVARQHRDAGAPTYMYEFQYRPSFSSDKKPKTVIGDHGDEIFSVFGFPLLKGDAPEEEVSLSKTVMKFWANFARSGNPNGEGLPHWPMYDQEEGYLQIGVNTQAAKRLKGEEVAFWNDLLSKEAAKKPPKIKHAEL

Cholinesterase [2] = molecular target: T2, Cholinesterase (Equus caballus, UniProt P81908); assay: Inhibition of equine serum BChE using butyrylthiocholine iodide as substrate preincubated for 10 mins followed by substrate addition by Ellman's method
Acetylcholinesterase [3] = molecular target: T3, Acetylcholinesterase (Homo sapiens, UniProt P22303)
Description: (§1) Inhibition of human erythrocyte AChE using acetylthiocholine iodide as substrate preincubated for 10 mins followed by substrate addition by Ellman's method

Cholinesterase [4] = molecular target: T2, Cholinesterase; assay: Competitive inhibition of equine serum BChE using butyrylthiocholine iodide as substrate assessed as steady state inhibition constant preincubated for 10 mins followed by substrate addition by Lineweaver-Burk double reciprocal plot analysis
Cholinesterase [5] = molecular target: T2, Cholinesterase; assay: Noncompetitive inhibition of equine serum BChE using butyrylthiocholine iodide as substrate assessed as steady state inhibition constant preincubated for 10 mins followed by substrate addition by Lineweaver-Burk double reciprocal plot analysis
[6] = Cytotoxicity against human fetal MSC assessed as reduction in cell viability at <30 uM after 72 hrs by MTT assay
Liver carboxylesterase [7] = molecular target: T1, Liver carboxylesterase; assay: Noncompetitive inhibition of porcine liver carboxylesterase using 4-nitrophenol acetate as substrate assessed as steady state inhibition constant preincubated for 10 mins followed by substrate addition by Lineweaver-Burk double reciprocal plot analysis
Acetylcholinesterase [8] = molecular target: T3, Acetylcholinesterase; remark: listed apart in the source
Description: as §1

T2 sequence (P81908 whole entry): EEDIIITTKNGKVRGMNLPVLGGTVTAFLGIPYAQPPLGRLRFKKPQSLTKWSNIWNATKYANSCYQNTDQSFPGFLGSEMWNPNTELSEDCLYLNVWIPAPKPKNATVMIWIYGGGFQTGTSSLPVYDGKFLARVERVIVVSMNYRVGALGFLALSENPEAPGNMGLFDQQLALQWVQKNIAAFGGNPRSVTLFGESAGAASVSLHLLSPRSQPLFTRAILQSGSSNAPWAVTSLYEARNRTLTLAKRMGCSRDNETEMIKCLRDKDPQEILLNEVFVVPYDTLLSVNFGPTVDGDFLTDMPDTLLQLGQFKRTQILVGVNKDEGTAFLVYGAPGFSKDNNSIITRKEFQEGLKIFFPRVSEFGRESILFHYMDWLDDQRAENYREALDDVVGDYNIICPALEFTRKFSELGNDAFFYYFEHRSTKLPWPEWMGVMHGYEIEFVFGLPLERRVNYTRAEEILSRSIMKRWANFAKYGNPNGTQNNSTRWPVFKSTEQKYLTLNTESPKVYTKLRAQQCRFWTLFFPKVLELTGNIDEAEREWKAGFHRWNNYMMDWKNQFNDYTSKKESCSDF
T3 sequence (P22303 whole entry): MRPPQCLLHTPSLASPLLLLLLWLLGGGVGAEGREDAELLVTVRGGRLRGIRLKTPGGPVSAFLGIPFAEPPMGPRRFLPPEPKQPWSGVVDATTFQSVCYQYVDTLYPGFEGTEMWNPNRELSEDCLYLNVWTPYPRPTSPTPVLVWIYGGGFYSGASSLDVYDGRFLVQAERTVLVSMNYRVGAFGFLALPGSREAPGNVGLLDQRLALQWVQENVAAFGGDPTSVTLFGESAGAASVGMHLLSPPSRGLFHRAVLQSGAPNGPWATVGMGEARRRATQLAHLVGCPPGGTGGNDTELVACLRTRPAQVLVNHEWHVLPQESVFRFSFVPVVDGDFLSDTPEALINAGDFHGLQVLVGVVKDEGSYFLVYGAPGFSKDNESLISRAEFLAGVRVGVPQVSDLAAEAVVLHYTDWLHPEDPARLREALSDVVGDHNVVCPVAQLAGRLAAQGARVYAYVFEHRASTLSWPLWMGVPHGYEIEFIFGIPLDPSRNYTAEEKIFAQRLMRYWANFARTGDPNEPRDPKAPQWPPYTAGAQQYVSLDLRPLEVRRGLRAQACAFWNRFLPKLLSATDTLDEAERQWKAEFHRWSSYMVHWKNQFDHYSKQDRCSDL

Structure (SMILES) | IC50 (Liver carboxylesterase [1]; read-out: IC50) [µM] | IC50 (Cholinesterase [2]) [µM] | IC50 (Acetylcholinesterase [3]) | Ki (Cholinesterase [4]) [µM] | Ki (Cholinesterase [5]) [µM] | Activity [6] | Ki (Liver carboxylesterase [7]) [µM] | IC50 (Liver carboxylesterase [1]) | IC50 (Acetylcholinesterase [8]) [µM]
I.ICC1CN=C(Nc2ccc3c(c2)oc2ccccc23)S1 (stereo unspecified) | > 100 | > 100 | Not Active | – | – | – | – | – | –
I.ICC1CN=C(N(Cc2ccccc2)Cc2ccccc2)S1 (stereo unspecified) | 46 | 25 | Not Active | – | – | – | – | – | –
Br.CC(c1ccccc1)N(Cc1ccccc1)C1=NCC(CBr)S1 (stereo unspecified) | > 100 | 14 | Not Active | – | – | – | – | – | –
Br.BrCC1CN=C(N(Cc2ccccc2)Cc2ccccc2)S1 (stereo unspecified) | 32 | 26 | Not Active | – | – | – | – | – | –
Br.Clc1ccccc1CN(Cc1cccnc1)C1=NCC(CBr)S1 (stereo unspecified) | > 100 | 25 | Not Active | – | – | – | – | – | –
CC(C)c1ccc(CN(Cc2ccccc2)C2=NCC(CI)S2)cc1.I (stereo unspecified) | 2.13 | 4.14 | Not Active | 1.34 | 7.56 | Non-toxic | 2.09 | – | –
CC(C)(C)c1cc(CN(Cc2ccccc2)C2=NCC(CI)S2)cc(C(C)(C)C)c1O.I (stereo unspecified) | – | > 100 | Not Active | – | – | – | – | Not Active | –
Br.CC(C)c1ccc(CN(Cc2ccccc2)C2=NCC(CBr)S2)cc1 (stereo unspecified) | 2.55 | 11 | Not Active | – | – | Non-toxic | 3.54 | – | –
COc1ccc(CN(Cc2ccccc2)C2=NCC(CI)S2)cc1OC (stereo unspecified) | > 100 | 20 | – | – | – | – | – | – | > 100
Clc1ccccc1CN(Cc1ccccc1)C1=NCC(CI)S1.I (stereo unspecified) | 117 | 44 | Not Active | – | – | – | – | – | –
Clc1ccccc1CN(Cc1cccnc1)C1=NCC(CI)S1.I (stereo unspecified) | > 100 | 21 | Not Active | – | – | – | – | – | –
I.ICC1CN=C(N(Cc2ccccc2)Cc2ccco2)S1 (stereo unspecified) | 131 | 42 | Not Active | – | – | – | – | – | –
COc1ccc(CN(Cc2ccccc2)C2=NCC(CI)S2)cc1.I (stereo unspecified) | 4.66 | 25 | Not Active | – | – | Non-toxic | 7.81 | – | –
Br.COc1ccc(CN(Cc2ccccc2)C2=NCC(CBr)S2)cc1 (stereo unspecified) | 4.9 | 34 | Not Active | – | – | Non-toxic | 7.37 | – | –
Br.Clc1ccc(CN(Cc2cccnc2)C2=NCC(CBr)S2)cc1 (stereo unspecified) | > 100 | 30 | Not Active | 9.51 | 19.9 | Non-toxic | – | – | –
Fc1ccc(CN(Cc2ccccc2)C2=NCC(CI)S2)cc1.I (stereo unspecified) | 80 | 17 | Not Active | – | – | – | – | – | –
Br.CC(C)(C)c1ccc(CN(Cc2ccccc2)C2=NCC(CBr)S2)cc1 (stereo unspecified) | 0.32 | 2.34 | Not Active | 0.62 | – | Non-toxic | 0.44 | – | –
Br.Fc1ccc(CN(Cc2ccccc2)C2=NCC(CBr)S2)cc1 (stereo unspecified) | 40 | 38 | Not Active | – | – | – | – | – | –
CC(C)(C)c1ccc(CN(Cc2ccccc2)C2=NCC(CI)S2)cc1.I (stereo unspecified) | 0.22 | 0.77 | Not Active | 0.27 | 1.2 | Non-toxic | 0.4 | – | –
CC(c1ccccc1)N(Cc1ccccc1)C1=NCC(CI)S1.I (stereo unspecified) | 19 | > 100 | Not Active | – | – | – | – | – | –
Clc1ccc(CN(Cc2cccnc2)C2=NCC(CI)S2)cc1.I (stereo unspecified) | 18 | 2.47 | – | 0.67 | 3.6 | Non-toxic | – | – | > 100
